# Data taken from US7964725B2, “Heteroarylbenzamide derivatives for use in the treatment of diabetes” (AstraZeneca AB, priority 2006, dated 2011).
# What was measured:
# [1] = target: T1, recombinant human pancreatic GLK (Homo sapiens, UniProt P35557); test: Enzymatic activity: activation of glucokinase in the absence of GLKRP; assay type: biochemical; conditions: G-6-P dehydrogenase NADP/NADPH coupled assay, OD 340 nm
# T1 construct: 6-His (N); made in house; host or cells: E. coli BL21
# T1 sequence (P35557 1-465): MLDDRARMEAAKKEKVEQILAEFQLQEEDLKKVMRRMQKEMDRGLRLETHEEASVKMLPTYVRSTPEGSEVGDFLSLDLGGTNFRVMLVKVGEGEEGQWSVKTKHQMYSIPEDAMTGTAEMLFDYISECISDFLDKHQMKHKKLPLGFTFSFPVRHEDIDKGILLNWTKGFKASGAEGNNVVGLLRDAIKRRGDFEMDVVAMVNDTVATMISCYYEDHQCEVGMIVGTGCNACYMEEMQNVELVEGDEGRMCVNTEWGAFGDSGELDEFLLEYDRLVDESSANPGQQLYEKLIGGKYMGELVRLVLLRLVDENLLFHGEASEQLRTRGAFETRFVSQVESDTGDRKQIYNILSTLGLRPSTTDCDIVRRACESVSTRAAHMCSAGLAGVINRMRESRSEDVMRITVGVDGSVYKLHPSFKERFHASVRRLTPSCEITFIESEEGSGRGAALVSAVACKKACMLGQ
# Method: Enzymatic activity of recombinant human pancreatic GLK may be measured by incubating GLK, ATP and glucose. The rate of product formation may be determined by coupling the assay to a G-6-P dehydrogenase, NADP/NADPH system and measuring the linear increase with time of optical density at 340 nm Brocklehurst et al (Diabetes 2004, 53, 535-541). Activation of GLK by compounds can be assessed using this assay in the presence or absence of GLKRP as described in Brocklehurst et al (Diabetes 2004, 53, 535-541).
# Human GLK and GLKRP cDNA was obtained by PCR from human pancreatic and hepatic mRNA respectively, using established techniques described in Sambrook J, Fritsch E F & Maniatis T, 1989. PCR primers were designed according to the GLK and GLKRP cDNA sequences shown in Tanizawa et al., Proc Natl Acad Sci 1991 August 15; 88(16):7294-7 and Warner et al., Mamm Genome. 1995 August; 6(8):532-6.
# GLK was expressed from the vector pTB375NBSE in E. coli BL21 cells, producing a recombinant protein containing a 6-His tag immediately adjacent to the N-terminal methionine. Alternatively, another suitable vector is pET21(+)DNA, Novagen, Cat number 697703. The 6-His tag was used to allow purification of the recombinant protein on a column packed with nickel-nitrilotriacetic acid agarose purchased from Qiagen (cat no 30250).
EC50 [1] [µM],melting point,SMILES
0.079,,"C[C@@H](COC(F)F)Oc1cc(Oc2cnc(C(=O)N(C)C)cn2)cc(C(=O)Nc2ccn(C)n2)c1 [Example 5, 5-[3-[(2S)-1-(difluoromethoxy)propan-2-yl]oxy-5-[(1-methylpyrazol-3-yl)carbamoyl]phenoxy]-N,N-dimethyl-pyrazine-2-carboxamide]"
0.069,,"Cc1cnc(NC(=O)c2cc(Oc3ccc(S(C)(=O)=O)nc3)cc(O[C@@H](C)COC(F)F)c2)cn1 [Example 1, 3-[(2S)-1-(difluoromethoxy)propan-2-yl]oxy-N-(5-methylpyrazin-2-yl)-5-(6-methylsulfonylpyridin-3-yl)oxy-benzamide]"
0.055,~ 75 °C,"Cc1cnc(NC(=O)c2cc(Oc3cnc(C(=O)N(C)C)cn3)cc(O[C@@H](C)COC(F)F)c2)cn1 [Example 2, 5-[3-[(2S)-1-(difluoromethoxy)propan-2-yl]oxy-5-[(5-methylpyrazin-2-yl)carbamoyl]phenoxy]-N,N-dimethyl-pyrazine-2-carboxamide]"
0.077,,"C[C@@H](COC(F)F)Oc1cc(Oc2ccc(S(C)(=O)=O)nc2)cc(C(=O)Nc2ccn(C)n2)c1 [Example 6, 3-[(2S)-1-(difluoromethoxy)propan-2-yl]oxy-N-(1-methylpyrazol-3-yl)-5-(6-methylsulfonylpyridin-3-yl)oxy-benzamide]"
0.033,,"C[C@@H](COC(F)F)Oc1cc(Oc2ccc(S(C)(=O)=O)nc2)cc(C(=O)Nc2cc[nH]n2)c1 [Example 4, 3-[(2S)-1-(difluoromethoxy)propan-2-yl]oxy-5-(6-methylsulfonylpyridin-3-yl)oxy-N-(1H-pyrazol-3-yl)benzamide]"
0.065,,"C[C@@H](COC(F)F)Oc1cc(Oc2cnc(C(=O)N(C)C)cn2)cc(C(=O)Nc2cc[nH]n2)c1 [Example 3, 5-[3-[(2S)-1-(Difluoromethoxy)propan-2-yl]oxy-5-(1H-pyrazol-3-ylcarbamoyl)phenoxy]-N,N-dimethyl-pyrazine-2-carboxamide]"
